Reference: ChEMBL document CHEMBL1201862, “PubChem BioAssay data set” (2004)
Calls of active or inactive are those of the source.

Assays:
[1] = target: DNA dC->dU-editing enzyme APOBEC-3A (Homo sapiens, UniProt P31941); assay: Dose Response confirmation of small molecule APOBEC3A DNA Deaminase Inhibitors via a fluorescence-based single-stranded DNA deaminase assay. [Related pubchem assays (depositor defined):AID493011, AID493024]; assay type: functional
[2] = target: DNA dC->dU-editing enzyme APOBEC-3G (Homo sapiens, UniProt Q9HC16); assay type: functional;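 also: Dose-response counterscreen measuring inhibition of APOBEC3G DNA deaminase activity, run while confirming APOBEC3A inhibitors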
Sequence of DNA dC->dU-editing enzyme APOBEC-3G (Q9HC16 whole entry): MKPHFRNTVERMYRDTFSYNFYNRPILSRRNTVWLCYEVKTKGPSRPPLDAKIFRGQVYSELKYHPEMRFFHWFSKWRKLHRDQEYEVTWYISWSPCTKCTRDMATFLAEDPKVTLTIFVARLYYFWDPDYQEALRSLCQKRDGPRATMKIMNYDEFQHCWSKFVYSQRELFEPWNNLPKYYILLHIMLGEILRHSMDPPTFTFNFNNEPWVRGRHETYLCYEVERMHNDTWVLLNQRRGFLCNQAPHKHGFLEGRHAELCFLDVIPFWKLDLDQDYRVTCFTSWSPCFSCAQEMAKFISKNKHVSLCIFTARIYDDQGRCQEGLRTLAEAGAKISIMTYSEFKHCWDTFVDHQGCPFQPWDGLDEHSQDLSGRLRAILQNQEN

[3] = target: T1, Short transient receptor potential channel 4 (Mus musculus, UniProt Q9QUQ5); assay: mouse TRPC4 channel activators, dose response, cell-based, HEK293 TRPC4/mu-opioid, Fluo-4 calcium (AID 434937); assay type: functional
T1 sequence (Q9QUQ5 whole entry): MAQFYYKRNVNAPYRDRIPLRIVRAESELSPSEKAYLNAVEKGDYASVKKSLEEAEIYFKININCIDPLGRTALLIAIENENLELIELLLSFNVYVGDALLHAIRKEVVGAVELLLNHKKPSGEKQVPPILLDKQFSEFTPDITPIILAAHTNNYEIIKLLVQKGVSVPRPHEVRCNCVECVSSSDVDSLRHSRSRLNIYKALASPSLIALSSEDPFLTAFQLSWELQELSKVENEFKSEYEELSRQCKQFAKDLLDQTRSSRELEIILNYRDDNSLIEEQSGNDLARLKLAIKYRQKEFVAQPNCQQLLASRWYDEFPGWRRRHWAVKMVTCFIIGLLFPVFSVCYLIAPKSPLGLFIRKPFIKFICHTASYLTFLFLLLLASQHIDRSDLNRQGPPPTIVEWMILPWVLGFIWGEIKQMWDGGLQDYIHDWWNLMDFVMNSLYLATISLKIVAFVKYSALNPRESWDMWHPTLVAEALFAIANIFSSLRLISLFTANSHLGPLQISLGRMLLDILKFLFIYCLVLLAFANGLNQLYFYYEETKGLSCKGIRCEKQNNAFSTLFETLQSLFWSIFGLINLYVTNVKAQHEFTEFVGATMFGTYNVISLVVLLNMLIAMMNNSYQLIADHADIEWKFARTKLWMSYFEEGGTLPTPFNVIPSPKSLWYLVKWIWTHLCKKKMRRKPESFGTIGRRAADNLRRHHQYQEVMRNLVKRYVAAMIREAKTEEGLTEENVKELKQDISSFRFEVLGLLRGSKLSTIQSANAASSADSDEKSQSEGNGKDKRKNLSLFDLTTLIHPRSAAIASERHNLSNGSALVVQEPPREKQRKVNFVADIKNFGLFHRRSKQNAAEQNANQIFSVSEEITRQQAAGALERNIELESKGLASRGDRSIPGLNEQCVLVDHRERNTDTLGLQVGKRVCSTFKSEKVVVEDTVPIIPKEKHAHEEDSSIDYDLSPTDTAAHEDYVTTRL

Aminopeptidase N = target: T2, Aminopeptidase N (Plasmodium falciparum FcB1/Columbia, UniProt O96935); assay: P. falciparum M1AAP inhibitors, biochemical, fluorogenic H-Leu-NHMec substrate, 1536-well (AID 1445); design: species or system Plasmodium falciparum 3D7, 3D7
T2 sequence (O96935 whole entry): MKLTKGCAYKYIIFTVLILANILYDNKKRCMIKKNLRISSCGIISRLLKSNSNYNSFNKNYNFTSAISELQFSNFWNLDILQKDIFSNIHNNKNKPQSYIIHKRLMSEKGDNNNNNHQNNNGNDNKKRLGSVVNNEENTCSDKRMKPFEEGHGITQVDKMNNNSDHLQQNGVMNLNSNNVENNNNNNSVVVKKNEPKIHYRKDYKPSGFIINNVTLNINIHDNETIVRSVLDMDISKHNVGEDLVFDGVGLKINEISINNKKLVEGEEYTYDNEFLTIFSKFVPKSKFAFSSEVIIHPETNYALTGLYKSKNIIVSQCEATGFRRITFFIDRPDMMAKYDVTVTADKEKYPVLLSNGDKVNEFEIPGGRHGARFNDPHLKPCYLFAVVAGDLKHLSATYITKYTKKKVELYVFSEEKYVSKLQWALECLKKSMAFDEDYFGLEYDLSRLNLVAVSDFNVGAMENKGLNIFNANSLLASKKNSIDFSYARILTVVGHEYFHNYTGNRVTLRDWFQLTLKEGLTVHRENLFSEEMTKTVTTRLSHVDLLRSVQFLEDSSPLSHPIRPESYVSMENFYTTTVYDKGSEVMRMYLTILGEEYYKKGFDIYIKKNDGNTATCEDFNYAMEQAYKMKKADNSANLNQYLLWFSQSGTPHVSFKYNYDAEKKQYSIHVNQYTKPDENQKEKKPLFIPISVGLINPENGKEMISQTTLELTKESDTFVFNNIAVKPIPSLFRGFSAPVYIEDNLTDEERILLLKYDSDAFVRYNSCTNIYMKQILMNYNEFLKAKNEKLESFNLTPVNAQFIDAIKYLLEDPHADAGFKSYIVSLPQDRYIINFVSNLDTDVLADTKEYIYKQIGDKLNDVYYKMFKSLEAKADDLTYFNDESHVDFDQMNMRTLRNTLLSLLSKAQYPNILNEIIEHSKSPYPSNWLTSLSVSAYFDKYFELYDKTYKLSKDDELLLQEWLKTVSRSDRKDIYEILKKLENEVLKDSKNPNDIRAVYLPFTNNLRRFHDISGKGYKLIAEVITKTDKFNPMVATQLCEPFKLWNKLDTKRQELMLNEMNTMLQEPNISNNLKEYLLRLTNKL

Cytochrome P450 3A4 = Cytochrome P450 3A4 (Homo sapiens, UniProt P08684);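 also: CYP3A4 tested as one member of a cytochrome P450 panel screen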
Sequence of Cytochrome P450 3A4 (P08684 whole entry): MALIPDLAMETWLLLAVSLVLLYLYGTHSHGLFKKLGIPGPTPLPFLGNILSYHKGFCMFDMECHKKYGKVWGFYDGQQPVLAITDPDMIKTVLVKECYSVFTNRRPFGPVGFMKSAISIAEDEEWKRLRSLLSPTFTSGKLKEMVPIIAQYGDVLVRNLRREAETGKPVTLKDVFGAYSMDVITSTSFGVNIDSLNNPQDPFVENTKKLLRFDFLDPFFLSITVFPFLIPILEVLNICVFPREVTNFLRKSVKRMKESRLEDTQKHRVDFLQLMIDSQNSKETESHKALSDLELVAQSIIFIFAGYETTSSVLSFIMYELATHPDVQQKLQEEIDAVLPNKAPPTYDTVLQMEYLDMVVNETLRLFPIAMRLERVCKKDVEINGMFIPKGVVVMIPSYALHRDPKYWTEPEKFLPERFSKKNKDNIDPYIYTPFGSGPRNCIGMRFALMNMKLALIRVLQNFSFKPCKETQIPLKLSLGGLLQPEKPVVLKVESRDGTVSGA

HEK293 [4] = assay: NOD1 signaling inhibitors, primary screen, cell-based, luminescence, uHTS (AID 1578); assay type: functional; details: Homo sapiens
HEK293 [5] = assay: cells; assay type: functional, cell-based; details: Homo sapiens
HEK293 [6] = assay: cells; assay type: functional, cell-based; details: Homo sapiens; remark: listed apart in the source
[7] = target: Nucleotide-binding oligomerization domain-containing protein 2 (Homo sapiens, UniProt Q9HC29); assay: NOD2 signaling inhibitors, cell-based, luminescence, uHTS, HEK293 (AID 1566); assay type: functional
Sequence of Nucleotide-binding oligomerization domain-containing protein 2 (Q9HC29 whole entry, the tested form may be a part): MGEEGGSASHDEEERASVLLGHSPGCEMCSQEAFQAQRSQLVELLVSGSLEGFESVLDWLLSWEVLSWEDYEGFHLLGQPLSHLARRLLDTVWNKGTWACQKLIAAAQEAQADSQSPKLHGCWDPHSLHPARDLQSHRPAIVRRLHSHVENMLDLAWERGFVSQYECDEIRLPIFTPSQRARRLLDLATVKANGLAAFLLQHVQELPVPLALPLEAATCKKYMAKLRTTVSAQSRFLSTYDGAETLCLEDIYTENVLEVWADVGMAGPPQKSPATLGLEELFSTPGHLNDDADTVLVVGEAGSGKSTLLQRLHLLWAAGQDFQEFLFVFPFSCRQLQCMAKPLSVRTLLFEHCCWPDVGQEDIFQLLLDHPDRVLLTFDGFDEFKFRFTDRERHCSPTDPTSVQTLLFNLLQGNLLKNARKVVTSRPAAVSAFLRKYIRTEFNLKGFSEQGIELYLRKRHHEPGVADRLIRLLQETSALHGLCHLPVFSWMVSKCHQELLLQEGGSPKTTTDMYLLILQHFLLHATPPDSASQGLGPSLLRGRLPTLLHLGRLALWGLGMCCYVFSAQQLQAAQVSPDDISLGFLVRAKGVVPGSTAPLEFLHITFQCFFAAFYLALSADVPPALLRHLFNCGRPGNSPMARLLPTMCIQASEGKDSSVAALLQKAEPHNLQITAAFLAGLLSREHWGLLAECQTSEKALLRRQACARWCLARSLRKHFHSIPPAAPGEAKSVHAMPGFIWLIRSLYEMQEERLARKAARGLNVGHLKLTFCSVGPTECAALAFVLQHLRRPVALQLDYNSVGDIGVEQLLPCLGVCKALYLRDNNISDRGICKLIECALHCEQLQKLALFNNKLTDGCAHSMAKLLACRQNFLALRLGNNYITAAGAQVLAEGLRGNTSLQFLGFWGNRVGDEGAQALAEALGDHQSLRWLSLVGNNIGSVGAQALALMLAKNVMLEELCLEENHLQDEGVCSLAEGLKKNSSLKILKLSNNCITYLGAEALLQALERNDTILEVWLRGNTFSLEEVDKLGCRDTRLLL

HEK293 [8] = assay: NOD2 signaling inhibitors in MDP-stimulated cells, cell-based, uHTS, luminescence (AID 2001); assay type: functional; details: Homo sapiens
HEK293 [9] = assay: cells; assay type: functional, cell-based; details: Homo sapiens; remark: listed apart in the source
INS1 = assay: beta cell apoptosis inhibitors, cytokine rescue, dose response, luminescence, retest (AID 449756); assay type: functional, cell-based; details: Rattus norvegicus;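 also: cell death triggered by IL-1 beta plus TNF-alpha plus IFN-gamma mixture; protective hits raise ATP signal compared with cytokine alone wells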
[10] = NIH-3T3 fibroblast cytotoxicity, dose response, cytotoxicity control, cell-based, fluorescence, Alamar Blue, secondary assay (AID 2327); assay type: functional;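 also: NIH-3T3 mouse fibroblasts cultured with fluconazole at 8 µg/mL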
[11] = C. albicans growth with fluconazole, confirmation, fluorescence, retest (AID 2467); assay type: functional, cell-based
cells = assay type: functional
[12] = THP-1 cell cytotoxicity, dose response, cytotoxicity control for non-replicating M. tuberculosis project (AID 489025); assay type: functional
[13] = Vero E6 cell cytotoxicity, dose response, cytotoxicity control for non-replicating M. tuberculosis project, secondary assay (AID 492998); assay type: functional, VeroE6; details: Vero C1008
Leucine aminopeptidase = target: T3, Leucine aminopeptidase (Plasmodium falciparum 3D7, UniProt Q8IL11); assay: P. falciparum M17LAP inhibitors, primary screen, biochemical, fluorogenic H-Leu-NHMec substrate, 1536-well (AID 1619); assay type: functional
T3 sequence (Q8IL11 whole entry): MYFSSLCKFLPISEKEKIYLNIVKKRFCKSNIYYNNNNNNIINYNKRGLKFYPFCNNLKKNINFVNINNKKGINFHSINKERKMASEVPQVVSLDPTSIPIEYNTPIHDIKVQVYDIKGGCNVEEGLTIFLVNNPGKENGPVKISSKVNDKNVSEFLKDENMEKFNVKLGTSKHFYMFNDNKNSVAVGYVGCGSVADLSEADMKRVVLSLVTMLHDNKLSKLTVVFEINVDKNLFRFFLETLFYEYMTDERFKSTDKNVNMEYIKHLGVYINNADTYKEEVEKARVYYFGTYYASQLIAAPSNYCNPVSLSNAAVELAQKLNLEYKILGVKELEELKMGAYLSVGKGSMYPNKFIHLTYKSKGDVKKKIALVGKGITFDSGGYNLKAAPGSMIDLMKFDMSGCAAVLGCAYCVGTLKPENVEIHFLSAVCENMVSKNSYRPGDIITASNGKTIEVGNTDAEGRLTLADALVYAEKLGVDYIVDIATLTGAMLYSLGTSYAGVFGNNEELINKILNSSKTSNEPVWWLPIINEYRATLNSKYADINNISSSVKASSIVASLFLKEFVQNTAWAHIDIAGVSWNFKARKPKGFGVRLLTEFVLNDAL

[14] = growth suppression of PTEN-null colon cells, dose response, cell-based, HCT116 PTEN knockout (AID 1047); assay type: functional;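 also: HCT116 colon tumor cells with PTEN knocked out; cells exposed to compound for 60 hours before readout; potency for loss of cell viability measured by luminescence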
[15] = growth suppression of beta-catenin-knockout colon cells, dose response, cell-based, HCT116, human colon tumor (AID 1045); assay type: functional;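 also: HCT116 colon tumor cells with beta catenin knocked out; cells exposed to compound for 60 hours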
[16] = target: T1, Short transient receptor potential channel 4; assay: mouse TRPC4 channel inhibitors, dose response, cell-based, HEK293 TRPC4/mu-opioid, Fluo-4 calcium (AID 434942); assay type: functional;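 also: potency of inhibitors blocking the TRPC4 calcium response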
[17] = target: T4, Corticotropin-releasing factor receptor 2/Corticotropin-releasing factor-binding protein (Homo sapiens, UniProt P24387+Q13324); assay: activators of CRF receptor 2 with binding protein – uHTS hits, confirmation (AID 602473); assay type: functional; details: read-out: EC50_Mean
T4 sequence (Q13324 whole entry): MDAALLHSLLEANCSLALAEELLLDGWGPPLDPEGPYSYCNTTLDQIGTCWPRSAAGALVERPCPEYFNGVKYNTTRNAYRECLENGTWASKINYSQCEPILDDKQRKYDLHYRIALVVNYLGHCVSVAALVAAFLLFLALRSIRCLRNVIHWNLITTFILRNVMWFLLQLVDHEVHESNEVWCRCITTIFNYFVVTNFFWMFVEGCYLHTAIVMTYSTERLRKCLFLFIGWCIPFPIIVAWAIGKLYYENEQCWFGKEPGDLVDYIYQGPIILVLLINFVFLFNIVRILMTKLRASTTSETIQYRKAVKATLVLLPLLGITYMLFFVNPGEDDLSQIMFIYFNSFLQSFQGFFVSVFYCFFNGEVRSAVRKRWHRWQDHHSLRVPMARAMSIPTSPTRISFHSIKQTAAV
T4 sequence (P24387 whole entry): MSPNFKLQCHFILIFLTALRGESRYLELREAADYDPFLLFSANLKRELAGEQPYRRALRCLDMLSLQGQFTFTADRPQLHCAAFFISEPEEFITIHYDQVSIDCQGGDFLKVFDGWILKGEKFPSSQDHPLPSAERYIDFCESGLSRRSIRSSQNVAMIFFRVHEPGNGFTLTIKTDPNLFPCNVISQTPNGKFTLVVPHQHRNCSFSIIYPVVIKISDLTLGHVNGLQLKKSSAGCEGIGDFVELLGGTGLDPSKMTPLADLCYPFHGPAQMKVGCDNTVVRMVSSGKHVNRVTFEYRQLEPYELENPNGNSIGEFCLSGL

Sequence of DNA dC->dU-editing enzyme APOBEC-3A (P31941 whole entry): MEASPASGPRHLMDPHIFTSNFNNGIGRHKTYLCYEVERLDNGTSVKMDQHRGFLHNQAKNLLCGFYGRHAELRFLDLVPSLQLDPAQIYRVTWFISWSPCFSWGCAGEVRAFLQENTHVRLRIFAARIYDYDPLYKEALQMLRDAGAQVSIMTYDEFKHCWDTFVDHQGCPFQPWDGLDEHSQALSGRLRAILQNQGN

CC1=CC(C)(C)[N+](C)(C)c2ccccc21
IC50 [1]: 2.6 µM (active)
IC50 [2]: 2.98 µM (active)

COc1ccc(-c2nn(-c3ccccc3C)cc2CNC(C)c2cn(C)nc2C)cc1F (stereo not drawn)
EC50 [3]: 1.68 µM (active)

CCOc1cc(/C=N/NC(=O)c2cccs2)cc([N+](=O)[O-])c1O
IC50 (Aminopeptidase N): 103 µM (active)

NC(N)=Nc1nc2ccc([N+](=O)[O-])cc2[nH]1
AC50 (Cytochrome P450 3A4): inconclusive

CCc1ccc(/C=C/c2c[nH]c3ccccc23)[n+](CC)c1
IC50 [1]: 2.33 µM (active)
IC50 [2]: 2.24 µM (active)

Cc1ccc(-c2c(C#N)c(N)n3c(nc4ccccc43)c2C#N)cc1
EC50 (HEK293 [4]): 2.11 µM (active)
IC50 (HEK293 [5]): 6.06 µM (active)
IC50 (HEK293 [6]): 11 µM (active)
EC50 [7]: > 20 µM (inactive)
IC50 (HEK293 [8]): 6.22 µM (active)
IC50 (HEK293 [9]): > 20 µM (inactive)
AC50 (INS1): 3.86 µM (active)

CN1CCN(S(=O)(=O)c2cccc(C(=O)N3CCN(c4ccccc4F)CC3)c2)CC1
IC50 [1]: 10.1 µM (active)
IC50 [2]: 19.2 µM (active)

Cc1nonc1C(=O)N/N=C/c1ccc([N+](=O)[O-])o1
EC50 [10]: 30.2 µM (active)
EC50 (HEK293 [4]): 9.04 µM (active)
IC50 (HEK293 [5]): > 20 µM (inactive)
EC50 [11]: 1.82 µM (active)
IC50 (HEK293 [6]): > 20 µM (inactive)
EC50 [7]: 10.9 µM (active)
IC50 (HEK293 [8]): > 20 µM (inactive)
IC50 (HEK293 [9]): > 20 µM (inactive)
IC50 (cells): 8.02 µM (active)

CCn1nc(NC(=O)COC)c2cc3cc(C)ccc3nc21
IC50 [1]: 5.02 µM (active)
IC50 [2]: 6.5 µM (active)

COc1cc(CNCCc2ccccc2)cc(Br)c1OCC(=O)Nc1ccccc1C
CC50 [12]: 23.1 µM (active)
CC50 [13]: 19.4 µM (active)
IC50 (cells): 21.2 µM (active)

COc1cc(OC)c(NC(=O)c2ccc3c(SCC(=O)O)c4c(nc3c2)CCCC4)cc1Cl
IC50 (Aminopeptidase N): 31.6 µM (active)

COc1ccc(/C=N/NC2=NC(=O)C(CC(=O)O)S2)cc1OCc1ccc(Cl)cc1 (stereo not drawn)
IC50 (Leucine aminopeptidase): 20.3 µM (active)
IC50 (Aminopeptidase N): 66.7 µM (active)

COc1ccc(/C=C2\COc3ccccc3C2=O)cc1OC
EC50 [14]: 7.42 µM (active)
EC50 [15]: 7.29 µM (active)
CC50 [12]: 17.9 µM (active)
CC50 [13]: > 20 µM (active)
IC50 (cells): 12.8 µM (active)

CCCCC(c1nnnn1CC1CCCO1)N1CCN(Cc2ccccc2)CC1 (stereo not drawn)
EC50 [16]: 2.37 µM (active)
EC50 [3]: 4.73 µM (active)

CC1CN(C(=O)c2ccc(NS(=O)(=O)c3ccc(C(C)(C)C)cc3)cc2)CC(C)O1 (stereo not drawn)
EC50 [3]: 5.96 µM (active)
EC50 [17]: 15.7 µM (active)

O=S(=O)(c1cccc(C(F)(F)F)c1)N1CCC(c2cc(-c3cccc4ccccc34)[nH]n2)CC1
AC50 (Cytochrome P450 3A4): inconclusive
